Assay results taken from ChEMBL document CHEMBL6083259, “Discovery of quinazoline-benzothiazole derivatives as novel potent protease-activated receptor 4 antagonists with improved pharmacokinetics and low bleeding liability” (Eur J Med Chem, 2024).
The source made the active and inactive calls. The rule behind the calls is not given here.

Tests used:
[1] = Tmax in iv dosed male Sprague-Dawley rat measured after 24 hrs by LC-MS/MS analysis; assay type: ADME, organism-based; details: in vivo
[2] = Oral bioavailability in male Sprague-Dawley rat measured after 24 hrs by LC-MS/MS analysis; assay type: ADME, organism-based; details: in vivo
[3] = Antagonist activity at […] expressed in HEK293/Galpha15 cells assessed as inhibition of 2-furoyl-LIGRLO-NH2-induced calcium mobilization incubated for 30 mins by FLIPR assay; assay type: cell-based; details: HEK293/Galpha15, 0.5 h
[4] = AUC (0 to last) in iv dosed male Sprague-Dawley rat measured after 24 hrs by LC-MS/MS analysis; assay type: ADME, organism-based; details: in vivo
[5] = Metabolic stability in rat liver microsomes assessed as half-life at 1 uM measured upto 120 mins in presence of NADPH by LC-MS/MS analysis; assay type: ADME, Microsome
[6] = Metabolic stability in human liver microsomes assessed as half-life at 1 uM measured upto 120 mins in presence of NADPH by LC-MS/MS analysis; assay type: ADME, Microsome
[7] = Tmax in po dosed male Sprague-Dawley rat measured after 24 hrs by LC-MS/MS analysis; assay type: ADME, organism-based; details: in vivo
[8] = Toxicity in male C57BL/6 mouse assessed as prolongation of bleeding time at 10 mg/kg, po measured after 1.5 hrs by tail bleeding assay; assay type: organism-based; details: in vivo
[9] = Cytotoxicity against HEK293 cells assessed as reduction in cell viability incubated for 48 hrs by MTT assay; assay type: toxicity, cell-based; details: human
[10] = AUC (0 to last) in po dosed male Sprague-Dawley rat measured after 24 hrs by LC-MS/MS analysis; assay type: ADME, organism-based; details: in vivo
[11] = target: T1, Proteinase-activated receptor 1 (Homo sapiens, UniProt P25116); assay: Antagonist activity at human PAR1 expressed in HEK293/Galpha15 cells assessed as inhibition of SFFLRR-NH2-induced calcium mobilization incubated for 30 mins by FLIPR assay; assay type: functional, cell-based
T1 sequence (P25116 whole entry): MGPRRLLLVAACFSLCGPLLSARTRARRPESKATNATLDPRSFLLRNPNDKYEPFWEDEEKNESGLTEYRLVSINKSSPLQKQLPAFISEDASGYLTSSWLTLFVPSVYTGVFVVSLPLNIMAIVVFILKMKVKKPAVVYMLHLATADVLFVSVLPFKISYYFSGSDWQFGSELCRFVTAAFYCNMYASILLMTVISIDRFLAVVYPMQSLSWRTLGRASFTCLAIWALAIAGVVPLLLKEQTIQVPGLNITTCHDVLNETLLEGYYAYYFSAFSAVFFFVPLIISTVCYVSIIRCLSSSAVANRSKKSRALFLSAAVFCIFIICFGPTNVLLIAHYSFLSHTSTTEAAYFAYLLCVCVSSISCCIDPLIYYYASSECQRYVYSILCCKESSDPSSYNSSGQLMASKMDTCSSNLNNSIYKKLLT

[12] = Cmax in iv dosed male Sprague-Dawley rat measured after 24 hrs by LC-MS/MS analysis; assay type: ADME, organism-based; details: in vivo
[13] = Antagonist activity at PAR4 in mouse washed platelets assessed as inhibition of gamma-PAR4 agonist peptide (AYPGKF-NH2)-induced platelet aggregation preincubated for 5 mins followed by peptide addition and measured after 5 mins by aggregometer
[14] = Clearance in iv dosed male Sprague-Dawley rat measured after 24 hrs by LC-MS/MS analysis; assay type: ADME, organism-based; details: in vivo
[15] = Half-life in po dosed male Sprague-Dawley rat measured after 24 hrs by LC-MS/MS analysis; assay type: ADME, organism-based; details: in vivo
[16] = Half-life in iv dosed male Sprague-Dawley rat measured after 24 hrs by LC-MS/MS analysis; assay type: ADME, organism-based; details: in vivo
[17] = target: T2, Proteinase-activated receptor 4 (Homo sapiens) (UniProt Q96RI0); assay: Antagonist activity at PAR4 in human platelet rich plasma assessed as inhibition of gamma-PAR4 agonist peptide (AYPGKF-NH2)-induced platelet aggregation at 200 nM preincubated for 5 mins followed by peptide addition and measured after 5 mins by aggregometer relative to control; assay type: cell-based; details: filed as antagonist, time 10.0 min
T2 sequence (whole entry): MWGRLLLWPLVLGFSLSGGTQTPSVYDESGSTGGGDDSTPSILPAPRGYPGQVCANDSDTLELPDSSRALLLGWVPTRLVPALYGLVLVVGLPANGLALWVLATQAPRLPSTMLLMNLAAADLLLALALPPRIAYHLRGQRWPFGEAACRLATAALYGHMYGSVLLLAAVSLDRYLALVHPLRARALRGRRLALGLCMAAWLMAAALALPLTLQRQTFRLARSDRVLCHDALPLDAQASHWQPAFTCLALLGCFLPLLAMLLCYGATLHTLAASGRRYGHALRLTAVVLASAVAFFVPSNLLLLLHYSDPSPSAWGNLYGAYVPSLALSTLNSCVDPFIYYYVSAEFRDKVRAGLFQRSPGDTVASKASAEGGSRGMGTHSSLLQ

[18] = Cmax in po dosed male Sprague-Dawley rat measured after 24 hrs by LC-MS/MS analysis; assay type: ADME, organism-based; details: in vivo
[19] = Protein binding in human plasma at 10 uM incubated for 6 hrs by LC-MS/MS analysis; assay type: ADME, cell-free; details: read-out: PPB (converted)
[20] = Half-life in male Sprague-Dawley rat at 2 mg/kg, po measured after 24 hrs by LC-MS/MS analysis; assay type: ADME, organism-based; details: in vivo
[21] = AUC (0 to last) in male Sprague-Dawley rat at 0.5 mg/kg, iv measured after 24 hrs by LC-MS/MS analysis; assay type: ADME, organism-based; details: in vivo
Plasma [22] = assay: Inhibition of thrombin-induced platelet aggregation in human platelet rich plasma at 10 uM preincubated for 5 mins followed by thrombin addition and measured after 5 mins by aggregometer; assay type: functional, cell-free; details: time 10.0 min
[23] = Cmax in male Sprague-Dawley rat at 0.5 mg/kg, iv measured after 24 hrs by LC-MS/MS analysis; assay type: ADME, organism-based; details: in vivo
Plasma [24] = assay: Inhibition of collagen-induced platelet aggregation in human platelet rich plasma at 10 uM preincubated for 5 mins followed by collagen addition and measured after 5 mins by aggregometer; assay type: functional, cell-free
[25] = Protein binding in rat plasma at 10 uM incubated for 6 hrs by LC-MS/MS analysis; assay type: ADME, cell-free; details: read-out: PPB (converted)
[26] = Half-life in male Sprague-Dawley rat at 0.5 mg/kg, iv measured after 24 hrs by LC-MS/MS analysis; assay type: ADME, organism-based; details: in vivo
[27] = Tmax in male Sprague-Dawley rat at 2 mg/kg, po measured after 24 hrs by LC-MS/MS analysis; assay type: ADME, organism-based; details: in vivo
[28] = Clearance in male Sprague-Dawley rat at 0.5 mg/kg, iv measured after 24 hrs by LC-MS/MS analysis; assay type: ADME, organism-based; details: in vivo
[29] = Tmax in male Sprague-Dawley rat at 0.5 mg/kg, iv measured after 24 hrs by LC-MS/MS analysis; assay type: ADME, organism-based; details: in vivo
Plasma [30] = assay: Inhibition of ADP-induced platelet aggregation in human platelet rich plasma at 10 uM preincubated for 5 mins followed by ADP addition and measured after 5 mins by aggregometer; assay type: functional, cell-free
Plasma [31] = assay: Inhibition of U46619-induced platelet aggregation in human platelet rich plasma at 10 uM preincubated for 5 mins followed by U46619 addition and measured after 5 mins by aggregometer; assay type: functional, cell-free
[32] = AUC (0 to last) in male Sprague-Dawley rat at 2 mg/kg, po measured after 24 hrs by LC-MS/MS analysis; assay type: ADME, organism-based; details: in vivo
[33] = Clearance in male Sprague-Dawley rat at 2 mg/kg, po measured after 24 hrs by LC-MS/MS analysis; assay type: ADME, organism-based; details: in vivo
[34] = Cmax in male Sprague-Dawley rat at 2 mg/kg, po measured after 24 hrs by LC-MS/MS analysis; assay type: ADME, organism-based; details: in vivo
[35] = target: T3, Proteinase-activated receptor 4 (Homo sapiens, UniProt Q96RI0); assay: Antagonist activity at human PAR4 expressed in HEK293/Galpha15 cells assessed as inhibition of AYPGKF-NH2-induced calcium mobilization incubated for 30 mins by FLIPR assay; assay type: functional, cell-based
T3 sequence (Q96RI0 whole entry): T2 sequence (whole entry)

[36] = Oral bioavailability in male Sprague-Dawley rat at 2 mg/kg measured after 24 hrs by LC-MS/MS analysis; assay type: ADME, organism-based; details: in vivo
Plasma [37] = assay: Inhibition of […] peptide-induced platelet aggregation in human platelet rich plasma at 10 uM preincubated for 5 mins followed by peptide addition and measured after 5 mins by aggregometer; assay type: functional, cell-free; details: time 10.0 min
Plasma [38] = assay: Inhibition of SFFLLRN-NH2 peptide-induced platelet aggregation in human platelet rich plasma at 10 uM preincubated for 5 mins followed by peptide addition and measured after 5 mins by aggregometer; assay type: functional, cell-free

| Structure (SMILES) | IC50 [3] [µM] | half-life at 1 µM [5] [h] | half-life at 1 µM [6] [h] | Activity [8] | IC50 at 48 h [9] [µM] | IC50 [11] [µM] | inhibition [17] [%] | fraction unbound at 6 h, 10 µM [19] | half-life [20] [h] | AUC(0-t) at 24 h [21] [ng·h/mL] | inhibition (Plasma [22]) | Cmax [23] [ng/mL] | IC50 (Plasma [24]) [µM] | fraction unbound at 6 h, 10 µM [25] | half-life [26] [h] | Tmax [27] [h] | clearance [28] [mL/min/kg] | Tmax [29] [min] | IC50 (Plasma [30]) [µM] | IC50 (Plasma [31]) [µM] | also measured |
| --- | --- | --- | --- | --- | --- | --- | --- | --- | --- | --- | --- | --- | --- | --- | --- | --- | --- | --- | --- | --- | --- |
| COc1cc(Cl)c2nc(-c3cc(C)cc4c(=O)n(C)cnc34)sc2c1 | > 1 | 0.532 | 0.71 | Non-toxic | > 20 | > 3.16 | 94.5 |  |  |  |  |  |  |  |  |  |  |  |  |  | Tmax [1]: 4.8 min; bioavailability [2]: 3.71%; AUC(0-t) at 24 h [4]: 288 ng·h/mL; Tmax [7]: 2.83 h; AUC(0-t) at 24 h [10]: 32 ng·h/mL; Cmax [12]: 571 ng/mL; IC50 [13]: 0.084 µM; clearance [14]: 57.7 mL/min/kg; half-life [15]: 2.16 h; half-life [16]: 1.4 h; Cmax [18]: 6.4 ng/mL |
| COCc1ncc2c(-c3nc4cc(F)c(OCCOC(=O)Nc5cc(F)cc(C#N)c5)cc4s3)cc(C)cc2n1 | > 1 | 2.12 | 0.747 |  | > 20 | > 3.16 | 90.3 | 0.001 | 1.78 | 950 | Active | 944 | > 10 | 0.0011 | 2.2 | 1 | 9.5 | 4.8 | > 10 | > 10 | AUC(0-t) at 24 h [32]: 488 ng·h/mL; CL/F [33]: 65.3 mL/min/kg; Cmax [34]: 146 ng/mL; IC50 [35]: 0.0056 µM; bioavailability [36]: 13.2%; inhibition (Plasma [37]): Active; IC50 (Plasma [38]): > 10 µM |
| COc1ncc2c(-c3nc4cc(F)c5c(c4s3)C[C@H](COC(=O)Nc3cccc(C#N)c3)O5)cc(C)cc2n1 | > 1 | 1.49 | 4.16 | Non-toxic | > 20 | > 3.16 | 91.2 | 0.0005 | 5.16 | 636 | Active | 394 | > 10 | 0.0002 | 5.13 | 1.67 | 12.8 | 4.8 | > 10 | > 10 | AUC(0-t) at 24 h [32]: 1220 ng·h/mL; CL/F [33]: 25.4 mL/min/kg; Cmax [34]: 214 ng/mL; IC50 [35]: 0.00172 µM; bioavailability [36]: 50.5%; inhibition (Plasma [37]): Active; IC50 (Plasma [38]): > 10 µM |
| COc1ncc2c(-c3nc4cc(F)c5c(c4s3)C[C@H](COC(=O)Nc3cc(F)cc(C#N)c3)O5)cc(C)cc2n1 | > 1 | 1.73 | 4.71 | Non-toxic | > 20 | > 3.16 | 94.7 | 0.0004 | 7.05 | 808 | Active | 519 | > 10 | 0.0001 | 6.89 | 1 | 9.8 | 4.8 | > 10 | > 10 | AUC(0-t) at 24 h [32]: 865 ng·h/mL; CL/F [33]: 37.7 mL/min/kg; Cmax [34]: 170 ng/mL; IC50 [35]: 0.00096 µM; bioavailability [36]: 27.3%; inhibition (Plasma [37]): Active; IC50 (Plasma [38]): > 10 µM |
